Assays:
[1] = TEM morphology and size of SSP nanostructures; assay type: physicochemical; settings: for morphology after incubation with sSema4D: sSema4D 6 h, room temperature, mass ratio sSema4D/SSP 1/1000
Procedure: TP-1 to TP-12, SSP-1 and SSP-2 […]
were purchased by GL Biochem (Shanghai) Ltd.
Preparation of peptide-based nanomaterials. SSP-1 or SSP-2 monomers were dissolved in artificial tears at a concentration of 4.0 mM and sonicated for 30 min, followed by quick injection into water at a volume ratio of 1:200 for artificial tears and H2O to obtain the nanomaterials solution (20 μM).
TEM for the morphology. The SSP-1 or SSP-2 solution with the concentration of 20 μM (10 μL) was placed dropwise onto a copper mesh for 5 min, then most of the liquid was removed through a filter paper. Uranyl acetate solution (10 μL) were employed to stain the samples for 5 min, followed by drying the spare liquid with the filter. Finally, the copper mesh was washed with 10 μL of deionized water, which was blotted after staining and drying at room temperature. All of the samples were observed by TEM (Tecnai G2 20 S-TWIN) at an accelerating voltage of 120 kV. […]

[2] = test system: mouse brain microvascular endothelial cells (MBMEC); experiment: CCK-8 cytotoxicity; assay type: cell-based; settings: CCK-8, 24 h incubation, concentrations up to 80 × 10^−6 M
Procedure: In addition, KLVFF sequence, a sheet structure with strong hydrogen‐bonding was introduced into SSPs, we could distinctly observe the secondary structure of SSPs by circular dichroism (CD) spectroscopy. […] The percentage of β‐sheet after incubation with sSema4D in SSP‐1 and SSP‐2 were 85.6% and 42.3%, respectively, indicative of a highly organized packing of NFs in SSP‐1. […] The high percentage of β‐sheet structure in NFs stabilized the formation of nanostructure networks, due to its strong hydrogen‐bonding KLVFF sequence. Moreover, we carried out the cytotoxicity of SSP‐1 and SSP‐2 by using a standard CCK‐8 (Figure 3D). […] Finally, we investigated the recognition of sSema4D and SSP‐1 and SSP‐2 by confocal laser scanning microscope (CLSM). […]
pericytes were cultured in Pericyte Medium (ScienCell, USA). bEnd.3 cells were purchased from ATCC and grown in DMEM with 10% fetal bovine serum.
Preparation method of nanoparticles. The nanomaterials FG-12 and FH-12 were added to a 1:1 mixture of propylene glycol and ethanol solution to form a 2 mM mother liquor. The mother solution was diluted in normal saline at 1:100 dilution to form a 20 μM nanoparticle solution. […]
solution was added. After 2 h incubation with CCK8 solution at 37℃ in a 5% CO2 atmosphere, the […] was evaluated by a fluorescence microplate reader (PerkinElmer, Waltham, MA, USA). real-time PCR. […]

retina = experiment: Biosafety in the retina after intraocular injection; assay type: in vivo, mouse; settings: for pathological changes in the retina (HE staining): 30 d after intraocular injection; for abnormalities in retinal pigment epithelium, rod and cone layer, outer nuclear layer and retinal ganglion cells (electron microscopy): mouse, in vivo
Description: After 30 d of SSP‐1 and SSP‐2 intraocular injection, the biosafety of SSP‐1 and SSP‐2 was systematically studied by H&E staining and electron microscopy.

[3] = self-assembled in water, 20 μM, without sSema4D

Substance	morphology after incubation with sSema4D [1]	average size of NPs [1, 3]	viability of MBMEC [2]	pathological changes in the retina (HE staining) (retina)	abnormalities in retinal pigment epithelium, rod and cone layer, outer nuclear layer and retinal ganglion cells (electron microscopy) (retina)	average length of nanorods [1, 3]
C16‐FFVLK‐KQKRPRH [SSP-1, smart supramolecular peptide, C16‐FFVLK‐KQKRPRH, self-assembling, captures sSema4D]	dense NFs network structures	44.8 ± 2.9 nm	~90%	no significant pathological changes	no significant abnormalities	–
C16‐FFVLK‐KNKAAKG [SSP-2, smart supramolecular peptide, C16‐FFVLK‐KNKAAKG, self-assembling, captures sSema4D]	long‐size of nanofibrillar structures	–	~90%	no significant pathological changes	no significant abnormalities	190 ± 23.9 nm

Reference: PMC9875641, “Ophthalmic Solution of Smart Supramolecular Peptides to Capture Semaphorin 4D against Diabetic Retinopathy” (Advanced Science, 2022)
